Assay results taken from patent publication US9914750B2, “Synthetic peptides and peptide mimetics” (University of Louisville Research Foundation, priority 2007, dated 2018).
Entries after “also recorded” stand apart in the source; their conditions may differ. No end group written: not given here.

What was measured:
[1] = test system: LPS-binding protein (LBP); experiment: Inhibition of LPS binding to LPS-binding protein (ELISA); details: for Inhibition (Mean ± SEM) of LPS binding to LBP: relative to polymyxin B (100% inhibition), LPS preincubated with peptide
Procedure: Analysis of the PSP sequence indicated three possible regions of biological activity. Initially, three peptides corresponding to the PSP sequence in these regions were designed and used in these studies. The initial step in the inflammatory cascade is the binding of LPS to LPS-binding protein. This binding was inhibited by preincubation of LPS with each of the three peptides. […] The binding of LPS to LPB was analyzed to ELISA. 0% inhibition (100% binding) was determined in the absence of inhibitors while 100% inhibition was determined in the presence of the inhibitor polymyxin B. The inhibition of each peptide is determined relative to the effect of polymyxin B.

[2] = test system: Aggregatibacter (Actinobacillus) actinomycetemcomitans JP2; type: cell-based; details: 10 or 100 μg/ml
Procedure: The PSP peptides GL13, GK7 and KL11, lysozyme, LL37 or no peptide (BLK) were incubated with P. aeruginosa (FIG. 3A) or A. actinomycetemcomitans (FIG. 3B). P. aeruginosa PAO1 (10^5 cells/ml) were incubated for 2 h at 35° C. with 10 μg/ml (open bars) or 100 μg/ml (shaded bars) of each peptide. A. actinomycetemcomitans JP2 (10^5 cells/nil) were incubated for 4 h at 37° C. under reduced oxygen conditions. Bacterial cultures were diluted and plated on LB agar (Pseudomonas) or BHI agar plates (A.a., low oxygen incubation) and surviving CFUs enumerated. The data are shown as mean±SEM, P. aeruginosa: N=8−22 at 100 μg/ml, N=2−10 at 10 μg/ml. A. actinomycetemcomitans: N=3. *) P<0.0001, **) P<0.004, ***) P<0.02
Overnight cultures of bacteria were pelleted and resuspended in 10 mM sodium phosphate, pH 7.4 (10^5 CFU/ml). Diluted bacteria (100 μl) were incubated with 10 or 100 μg/ml of each peptide in 10 mM sodium phosphate, pH 7.4. P aeruginosa PAO1 were incubated for 2 h at 35° C. while A. actinomycetemcomitans JP2 were incubated for 4 h at 37° C. under reduced oxygen conditions. […]
As a second antibacterial assay, bactericidal activity was determined by incubating the peptides (10 or 100 μg/ml) with P. aeruginosa, A. actinomycetemcomitans or S. gordonii in 10 mM phosphate buffer. […]

sheep red blood cells = experiment: Hemagglutination assay; type: cell-based; details: PBS, absence of serum, 2 h
Procedure: FIG. 22: Hemagglutination of sheep red blood cells. RBCs were washed in PBS and incubated for 2 h in microtiter plates in PBS±5% fetal calf serum. Peptide concentrations were 83 μg/ml. The microtiter plate was imaged. Agglutinated red blood cells form a wide mat of cells, while non-agglutinated cells form a button shaped pellet.
Briefly, unmodified sheep erythrocytes (Cappel, M P Biomedicals, Irvine, Calif.) were washed in PBS and suspended at 1% in PBS. Diluted erythrocytes and 20 μg/ml of each peptide in PBS were mixed in polypropylene microtiter plates (120 μl per well) and incubated for 2 h at 35° C. The plates were imaged on a Kodak Image station.

P. aeruginosa = experiment: Antibacterial activity in vivo, Romaine lettuce infection model; parameters: species or system Pseudomonas aeruginosa; details: 200 μg/ml peptide injected with bacteria, scored after 2-3 days
Procedure: FIG. 4: Antibacterial activity in vivo. Romaine lettuce leaves were injected with P. aeruginosa (10^8 cells/nil) in the presence or absence of 200 μg/ml of antibacterial peptides. After 2-3 days incubation the injection sites were scored for infection on a scale of 0-100% relative to the no-bacteria (0% infection) and bacteria-only controls (PAO1) (100%). Data are from six independent experiments and are shown as mean±SEM, N=4−12. *) P<0.04, **) P<0.003.
Romaine lettuce heads were purchased from local grocery stores. Outer leaves were removed and undamaged leaves were selected. The leaves were rinsed in 0.1% bleach and incubated in plastic containers on filter paper moistened with 10 mM MgSO4. Overnight cultures of P. aeruginosa were diluted to 10^8 CFU/ml in 10 mM MgSO4 and supplemented with 200 μg/ml of each peptide. Ten μl (10^6 CFU, 2 μg peptide) were injected into the midrib of each leaf using a micro pipetter. Blank controls were incubated with buffer only, and bacterial controls were incubated without peptide. The plastic trays were covered and incubated at 35° C. Leaves were inspected daily for browning around the injection site or along the midrib. Generally rotting or moldy leaves were discarded. Infection was scored on a scale from 0% to 100% relative to blank controls and bacterial controls, respectively.

P. aeruginosa PAO1 [3] = experiment: MIC determination, broth dilution assay (growth OD 570 nm, pelleting in wells); type: cell-based, Pseudomonas aeruginosa
Procedure: (§1) FIGS. 5A and 5B: PSP peptides lack bacteriostatic activity. P. aeruginosa PAO1 or A. actinomycetemcomitans JP2 (10^5 cells/ml) were incubated overnight with two-fold serial dilutions of the indicated peptides. The OD was determined at 570 nm. The data for P. aeruginosa (FIG. 5A) are representative of six independent experiments. The data for A. actinomycetemcomitans (FIG. 5B) are representative of three independent experiments. Filled squares, lysozyme; open diamonds, no peptide; open triangles, KL-11; filled triangles, GK-7; open squares, GL-13; filled diamonds, LL-37. […] Lysozyme inhibits growth about 50%. None of the PSP peptides inhibit growth.
FIG. 6A-6C: GL13 causes bacterial cell spreading. Microtiter plates used to determine bacteriostatic activity (FIG. 5) were photographed after overnight incubation with serial dilutions of the indicated peptides. The diameter of the P. aeruginosa pellets in the presence of GL13 was determined and expressed relative to the peptide concentration in each well. A. Graph of the results. B and C are representative depictions of P. aeruginosa and A. actinomycetemcomitans, respectively, spreading in the presence of PSP peptides.
The minimal inhibitory concentration (MIC) of PSP peptides was tested using the broth dilution assay. […] Bacterial growth was quantitated by the optical density (OD) at 570 nm. […]

[4] = test system: A. actinomycetemcomitans JP2; experiment: as above; type: cell-based, Aggregatibacter (Actinobacillus) actinomycetemcomitans
Procedure: as §1
The minimal inhibitory concentration (MIC) of PSP peptides was tested using the broth dilution assay. Briefly, overnight cultures of bacteria were diluted in Mueller-Hinton broth (MHB) (Difco) to 10^5 CFU/ml. Diluted bacteria (100 μl) and two-fold serial dilutions of peptides in 10 mM sodium phosphate, pH 7.4 (20 μl) were mixed in polypropylene microtiter plates and incubated for 24 h at 35° C. for P. aeruginosa or 48 h at 37° C. under reduced oxygen conditions for A. actinomycetemcomitans. Control samples were incubated with bacteria and two-fold serial dilutions of 20 μl 0.01% acetic acid in 10 mM sodium phosphate. Bacterial growth was quantitated by the optical density (OD) at 570 nm. […]

P. aeruginosa PAO1 [5] = experiment: Biofilm formation / bacterial adhesion assay, PVC microtiter plates, crystal violet; type: cell-based, Pseudomonas aeruginosa; details: 50 μg/ml, 6 h, aerobic
Procedure: FIGS. 7A and 7B: PSP-peptides inhibit biofilm formation. P. aeruginosa PAO1 (overnight cultures, diluted 1:100 were incubated with 50 μg/ml of each peptide (LL37, GK7, GL13, KL11) or lysozyme for 6 h under aerobic (FIG. 7A) or reduced oxygen (anaerobic) (FIG. 7B) conditions. The OD 570 (growth) was determined and the attached cells were then quantitated by staining with crystal violet (biofilm). Growth and biofilm values were normalized against the mean of samples without peptides (HOAc) and expressed as mean±SEM. The data in panel A are from three independent experiments, N=22−24. The data in panel B are from two independent experiments, N=16. Lysozyme (Lyz) data are from a single experiment, N=8. *) different from Growth, P<0.002
(§2) Overnight cultures of P. aeruginosa PAO1 were diluted 1:100 in MHB and 100 μl/well were incubated with 5 μl of LL-37, GK-7, GL-13, KL-11 or lysozyme (1 mg/ml) in PVC microtiter plates. The plates were incubated for 6 h at 32° C. under aerobic or reduced oxygen conditions. Bacterial growth was quantitated spectrophotometrically at 570 nm. Twenty-five μl of 1% crystal violet in dH2O was added to each well and incubated 20 min at room temperature. The wells were emptied and washed three times in dH2O and then incubated for 30 min with 200 μl of 95% ethanol. The OD at 570 nm was determined as a measure of biofilm formation. Growth and biofilm values were normalized against the mean of samples incubated with 0.01% acetic acid without peptides.
as §2, with “μl of the bacterial suspension was mixed” for “μl/well were incubated”, “50 μg/ml” for “5 μl”, “lysozyme” for “lysozyme (1 mg/ml)”

[6] = Affinity binding of PSP to LPS-Sepharose / immobilized LPS
Description: PLUNC binds LPS, as expected from its structural similarity to LPS-Binding Protein (LBP). To determine if PSP also binds LPS, the protein was expressed in GH4C1 cells and the secretion medium was used for affinity chromatography on LPS-Sepharose. After binding, the affinity matrix was washed and then eluted with PBS+0.2 g/1 EDTA. […] The results of this experiment establish that PSP is an LPS-binding protein and provides a method for purification of PSP.
Secretion medium from GH4C1 cells was loaded on LPS-Sepharose and the unbound fraction collected (this sample was divided on two lanes for PSP-WT). The column was washed and then eluted with PBS+EDTA. The eluted beads were boiled in SDS-sample buffer to release any remaining proteins.

With “Substance P: antibacterial cationic peptide substance P” the “effect on LPS binding to LBP” value [1] was “had no effect on LPS binding to LBP” and the “Inhibition (Mean ± SEM) of LPS binding to LBP” value (“Inhibition (Mean ± SEM)” for short) [1] was −18% ± 19.

With KLLNNVISK [KK9] the “Inhibition (Mean ± SEM)” value [1] was 34% ± 12.

For CC[C@H](C)[C@H](NC(=O)[C@H](CCCCN)NC(=O)[C@H](CCC(=O)O)NC(=O)[C@H](CCCCN)NC(=O)[C@H](CO)NC(=O)[C@H](CCCCN)NC(=O)[C@H](CCCNC(=N)N)NC(=O)[C@H](Cc1ccccc1)NC(=O)[C@H](Cc1ccccc1)NC(=O)[C@H](CC(=O)O)NC(=O)CNC(=O)[C@H](CC(C)C)NC(=O)[C@@H](N)CC(C)C)C(=O)NCC(=O)N[C@@H](CCCCN)C(=O)N[C@@H](CCC(=O)O)C(=O)N[C@@H](Cc1ccccc1)C(=O)N[C@@H](CCCCN)C(=O)N[C@@H](CCCNC(=N)N)C(=O)N[C@H](C(=O)N[C@H](C(=O)N[C@@H](CCC(N)=O)C(=O)N[C@@H](CCCNC(=N)N)C(=O)N[C@H](C(=O)N[C@@H](CCCCN)C(=O)N[C@@H](CC(=O)O)C(=O)N[C@@H](Cc1ccccc1)C(=O)N[C@@H](CC(C)C)C(=O)N[C@@H](CCCNC(=N)N)C(=O)N[C@@H](CC(N)=O)C(=O)N[C@@H](CC(C)C)C(=O)N[C@H](C(=O)N1CCC[C@H]1C(=O)N[C@@H](CCCNC(=N)N)C(=O)N[C@H](C(=O)N[C@@H](CCC(=O)O)C(=O)N[C@@H](CO)C(=O)O)[C@@H](C)O)C(C)C)[C@@H](C)CC)C(C)C)[C@@H](C)CC [LL37, reference compound], the “killing of A. actinomycetemcomitans” value [2] was 100% and the “hemagglutination (words)” value (sheep red blood cells) was “did not cause hemagglutination”.

For “GQIINLKASLNLL-NH2 [GL13-D/N-NH2, GQIINLKASLNLL-(CONH2)]”, the “hemagglutination (words)” value (sheep red blood cells) was “caused hemagglutination”.

In the case of GQIINLKASLDLL [GL13-OH, GQIINLKASLDLL], the “hemagglutination (words)” value (sheep red blood cells) is reported as “caused hemagglutination”.

For KAQEAEKLLNN [KN11], the “Inhibition (Mean ± SEM)” value [1] was 36% ± 13.

With “lysozyme: Lysozyme (egg white) from Fisher Scientific, established antimicrobial protein [reference compound]” the “infection of lettuce leaves” value (P. aeruginosa) was “significantly reduced the infection”, the “reduction of growth of P. aeruginosa” value (P. aeruginosa PAO1 [3]; broth dilution assay) was “about 50%” and the MIC (P. aeruginosa PAO1 [3]; two-fold serial dilutions starting at 84 μg/ml) was “did not exhibit a defined MIC”. The “growth inhibition of A. actinomycetemcomitans” value [4] was “did not inhibit growth of A. actinomycetemcomitans”, the “bacterial growth in biofilm/adhesion assay” value (P. aeruginosa PAO1 [5]) was “affected neither growth nor biofilm formation; also recorded: affected neither growth nor adhesion” and the “biofilm formation / adhesion” value (P. aeruginosa PAO1 [5]) was “affected neither growth nor biofilm formation; also recorded: affected neither growth nor adhesion”.

B1: PSP: human Parotid Secretory Protein (SPLUNC2, C20ORF70), SEQ ID NO:6 (protein, listed as Homo sapiens)
chain: MLQLWKLVLLCGVLTGTSESLLDNLGNDLSNVVDKLEPVLHEGLETVDNTLKGILEKLKVDLGVLQKSSAWQLAKQKAQEAEKLLNNVISKLLPTNTDIFGLKISNSLILDVKAEPIDDGKGLNLSFPVTANVTVAGPIIGQIINLKASLDLLTAVTIETDPQTHQPVAVLGECASDPTSISLSLLDKHSQIINKFVNSVINTLKSTVSSLLQKEICPLIRIFIHSLDVNVIQQVVDNPQHKTQLQTLI
With B1 the “binding of PSP to LPS” value [6] was “quantitatively retained by the LPS affinity matrix; also recorded: bound to immobilized P. aeruginosa LPS”.
